# Laboratory results taken from patent US20240174618A1, “SUBSTITUTED (2-HETEROARYLOXYPHENYL)SULFONATES, SALTS THEREOF AND THEIR USE AS HERBICIDAL AGENTS” (Bayer Aktiengesellschaft, priority 2021, published 2024).
# Assays:
# Format in all cases: in vivo
# Kochia scoparia (KCHSC) = experiment: A. Herbicidal pre-emergence efficacy, KCHSC
# Procedure, shortened: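 Pre-emergence soil-surface spray in sandy loam pots, WP/EC in water plus 0.5% additive, 600 L/ha. Visual % damage rating after about 3 weeks in greenhouse vs. untreated; 0% = control-like, 100% = dead plants. Rates up to 1280 g/ha.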
# [1] = tested on: Echinochloa crus-galli (ECHCG); experiment: E. Herbicidal post-emergence efficacy, ECHCG
# Experimental: (§1) Seeds of monocotyledonous and dicotyledonous weeds and crop plants were placed in sandy loam in plastic or organic planting pots, covered with soil and cultivated in a greenhouse under controlled growth conditions. 2 to 3 weeks after sowing, the test plants were treated at the one-leaf stage. The compounds of the invention, formulated in the form of wettable powders (WP) or as emulsion concentrates (EC), were then sprayed onto the green parts of the plants as aqueous suspension or emulsion with addition of 0.5% additive at a water application rate of 600 l/ha (converted). After the test plants had been kept in the greenhouse under optimum growth conditions for about 3 weeks, the activity of the preparations was rated visually in comparison to untreated controls.
# (§2) For example, • 100% efficacy=plants have died, • 0% action=like untreated control plants.
# (§3) Tables E1a to E12b below show the effects of selected compounds of the general formula (I) according to table 1 on various harmful plants at an application rate corresponding to 320 g/ha or less, which were obtained by the experimental procedure mentioned above.
# [2] = tested on: Triticum aestivum (TRZAS); experiment: F. Post-emergence effect on useful plants, TRZAS; conditions: useful plant
# Procedure, shortened: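 Crop plants grown in sandy loam in the greenhouse were sprayed at the one-leaf stage, 2-3 weeks after sowing, with WP or EC formulations plus 0.5% additive at 600 l/ha water. Damage was scored visually after about 3 weeks against untreated controls (0% = like control, 100% = dead).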
# Poa annua (POAAN) = experiment: B. Herbicidal post-emergence efficacy, POAAN
# Procedure, shortened: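 Visual percent efficacy relative to untreated controls (0% unaffected, 100% dead), scored roughly 3 weeks after foliar spraying of one-leaf-stage pot-grown plants with WP or EC preparations at application rates up to 1280 g/ha in 600 L/ha water containing 0.5% additive.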
# [3] = tested on: Amaranthus retroflexus (AMARE); experiment: E. Herbicidal post-emergence efficacy, AMARE
# Procedure, shortened: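 Greenhouse weeds were treated post-emergence at the one-leaf stage, 2-3 weeks after sowing in sandy loam, with WP or EC formulations sprayed as aqueous suspension/emulsion plus 0.5% additive at 600 l/ha, at 320 g/ha or less. Efficacy was rated visually after about 3 weeks versus untreated controls (100% = dead, 0% = like control).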
# [4] = tested on: Polygonum convolvulus (POLCO); experiment: E. Herbicidal post-emergence efficacy, POLCO
# Experimental: as §1, §2, §3
# [5] = tested on: Digitaria sanguinalis (DIGSA); experiment: C. Herbicidal pre-emergence efficacy, DIGSA; conditions: scored after about 3 weeks
# Procedure, shortened: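 Pre-emergence test: formulated compounds sprayed as aqueous suspension or emulsion with 0.5% additive at 600 l/ha onto soil covering sown seeds, at rates corresponding to 320 g/ha or less. After about 3 weeks in greenhouse, efficacy scored visually as percent versus untreated controls (100% = plants dead).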
# [6] = 80 g/ha, scored visually after about 3 weeks vs untreated controls
# [7] = pre-emergence, dosage 1280 g/ha
Post-emergence efficacy against TRZAS in % ([2]; application rate 80 g/ha) [%],Post-emergence efficacy against TRZAS in % ([2]; application rate 320 g/ha) [%],SMILES,Pre-emergence efficacy against KCHSC (Kochia scoparia (KCHSC); [6]) [%],"Pre-emergence efficacy against KCHSC (Kochia scoparia (KCHSC); pre-emergence, dosage 320 g/ha) [%]",Pre-emergence efficacy against KCHSC (Kochia scoparia (KCHSC); [7]) [%],Post-emergence efficacy against ECHCG in % ([1]; application rate 320 g/ha) [%],Post-emergence efficacy against POAAN (Poa annua (POAAN); 80 g/ha) [%],Post-emergence efficacy against POAAN (Poa annua (POAAN); 320 g/ha) [%],Post-emergence efficacy against POAAN (Poa annua (POAAN); 1280 g/ha) [%],Post-emergence efficacy against AMARE in % ([3]; application rate 80 g/ha) [%],Post-emergence efficacy against AMARE in % ([3]; application rate 320 g/ha) [%],Post-emergence efficacy against POLCO in % ([4]; application rate 80 g/ha) [%],Post-emergence efficacy against POLCO in % ([4]; application rate 320 g/ha) [%],Post-emergence efficacy against ECHCG in % ([1]; application rate 80 g/ha) [%],Pre-emergence efficacy against DIGSA ([5]; 80 g/ha) [%],Pre-emergence efficacy against DIGSA ([5]; 320 g/ha) [%]
0,10,CCCS(=O)(=O)Oc1ccccc1Oc1ncc(Cl)cn1 [Example I-3],100,100,100,90,–,–,90,–,100,–,90,–,–,–
20,–,O=S(=O)(CCCCl)Oc1ccccc1Oc1ncc(F)cn1 [Example I-5],100,100,100,100,–,90,100,100,100,90,100,80,–,–
20,–,"CC(C)CS(=O)(=O)Oc1ccccc1Oc1ncc(Cl)cn1 [Example I-7, [2-(5-Chloropyrimidin-2-yl)oxyphenyl] 2-methylpropane-1-sulfonate]",90,100,100,100,–,–,90,90,100,–,100,80,100,100
20,–,O=S(=O)(CCC(F)(F)F)Oc1ccccc1Oc1ncc(Cl)cn1 [Example I-8],100,100,100,90,–,–,90,100,100,90,90,90,100,100
20,–,O=S(=O)(CCl)Oc1ccccc1Oc1ncc(Cl)cn1 [Example I-9],90,100,100,–,–,–,90,100,100,–,90,–,–,100
0,0,Cc1cccc(OS(=O)(=O)CCCCl)c1Oc1ncc(Cl)cn1 [Example I-12],–,90,100,90,–,–,90,90,90,–,100,–,90,100
20,–,O=S(=O)(CCCCl)Oc1c(F)cccc1Oc1ncc(Cl)cn1 [Example I-14],100,100,100,100,90,100,100,100,100,80,90,90,–,–
0,0,CCCCCS(=O)(=O)Oc1ccccc1Oc1ncc(Cl)cn1 [Example I-24],–,–,100,80,–,90,100,90,100,–,–,–,90,100
0,0,CC(C)CCS(=O)(=O)Oc1ccccc1Oc1ncc(Cl)cn1 [Example I-25],90,100,100,100,–,90,100,–,90,–,–,–,100,100

# Continued, compound first:
SMILES,Post-emergence efficacy against TRZAS in % ([2]; application rate 80 g/ha) [%],Post-emergence efficacy against TRZAS in % ([2]; application rate 320 g/ha) [%],Pre-emergence efficacy against KCHSC (Kochia scoparia (KCHSC); [6]) [%],"Pre-emergence efficacy against KCHSC (Kochia scoparia (KCHSC); pre-emergence, dosage 320 g/ha) [%]",Pre-emergence efficacy against KCHSC (Kochia scoparia (KCHSC); [7]) [%],Post-emergence efficacy against ECHCG in % ([1]; application rate 320 g/ha) [%],Post-emergence efficacy against POAAN (Poa annua (POAAN); 80 g/ha) [%],Post-emergence efficacy against POAAN (Poa annua (POAAN); 320 g/ha) [%],Post-emergence efficacy against POAAN (Poa annua (POAAN); 1280 g/ha) [%],Post-emergence efficacy against AMARE in % ([3]; application rate 80 g/ha) [%],Post-emergence efficacy against AMARE in % ([3]; application rate 320 g/ha) [%],Post-emergence efficacy against POLCO in % ([4]; application rate 80 g/ha) [%],Post-emergence efficacy against POLCO in % ([4]; application rate 320 g/ha) [%],Post-emergence efficacy against ECHCG in % ([1]; application rate 80 g/ha) [%],Pre-emergence efficacy against DIGSA ([5]; 80 g/ha) [%],Pre-emergence efficacy against DIGSA ([5]; 320 g/ha) [%]
O=S(=O)(CCCCl)Oc1ccccc1Oc1ncc(Cl)cn1 [Example I-2],0,–,100,100,100,100,90,100,100,100,100,100,100,–,–,–
CCCCS(=O)(=O)Oc1ccccc1Oc1ncc(Cl)cn1 [Example I-6],–,–,90,90,100,100,–,–,100,90,100,90,100,90,100,100
O=S(=O)(CCCC(F)(F)F)Oc1ccccc1Oc1ncc(Cl)cn1 [Example I-10],–,–,100,100,100,90,–,–,90,100,100,90,100,90,100,100
O=S(=O)(CCCCl)Oc1cccc(F)c1Oc1ncc(Cl)cn1 [Example I-13],10,10,–,–,100,–,–,–,100,–,80,–,80,–,–,–
O=S(=O)(CCCCCl)Oc1ccccc1Oc1ncc(Cl)cn1 [Example I-15],–,–,100,100,100,80,–,90,90,100,100,80,100,–,100,100
CCS(=O)(=O)Oc1ccccc1Oc1ncc(Cl)cn1 [Example I-16],–,–,100,100,100,–,–,–,100,–,–,–,–,–,–,–
"Cc1cccc(Oc2ncc(Cl)cn2)c1OS(=O)(=O)CCCC(F)(F)F [Example I-28, 2-[(5-Chloropyrimidin-2-yl)oxy]-6-methylphenyl 4,4,4-trifluorobutane-1-sulfonate]",–,–,–,90,90,–,–,90,100,–,–,–,–,–,–,–
O=S(=O)(CCCC(F)(F)F)Oc1c(Br)cccc1Oc1ncc(Cl)cn1 [Example I-30],–,–,–,100,100,–,–,90,100,–,–,–,–,–,–,–
O=S(=O)(CCC(F)(F)F)Oc1c(Br)cccc1Oc1ncc(Cl)cn1 [Example I-31],–,–,90,100,100,–,–,90,100,–,–,–,–,–,–,–
